The values that follow come from US12465579B2, “Compositions and methods for treating homocystinuria and other conditions” (THE REGENTS OF THE UNIVERSITY OF COLORADO, A BODY CORPORATE, priority 2019, dated 2025).

In series [1] the test system is HO HCU mice. The experiment in a line: Plasma Hcy, cysteine and metabolite levels in HO HCU mice treated via drinking water. Conditions: for further lowering of Hcy due to betaine in the presence of the amino acid: about 3.0% w/v amino acid combined with about 3.0% w/v betaine in drinking water, one week; for plasma Hcy / plasma cysteine levels: HO mice, about 3.0% (w/v) in drinking water ad libitum for one week, normal methionine diet. In kind it is in vivo, mouse. The procedure:
It is noted that WT mice (n=6) were untreated controls. HO HCU mice (N=8, 4 of each sex in each group) were either untreated or treated with about 3.0% (w/v) glycine w/v or about 3.0% (w/v) serine given in drinking water supplied ad libitum for one week.
In accordance with these methods, HO HCU mice (N=8, 4 of each sex in each group) were treated with either about 3.0% glycine w/v or about 3.0% w/v serine given in drinking water supplied ad libitum for one week in the presence and absence of about 3.0% w/v betaine. Plasma samples were taken from the mice at various times and Hcy levels were determined.
Plasma Hcy levels were determined from HO HCU mice (n=8 per group) in the presence and absence of either about 5.0% w/v sodium formate alone or in combination with about 3.0% betaine given in drinking water given ad libitum. […]

The test system of the next series is DMGDH. The experiment in a line: Western blot analysis of hepatic DMGDH protein levels in HO HCU mice. In kind it is in vivo, mouse. The procedure:
In other exemplary experiments, it is noted that methotrexate (MTX) treatment represses hepatic DMGDH protein levels even further in experimental HO HCU mice which supports the hypothesis that expression of this enzyme is sensitive to THF levels. In accordance with these methods, Western blot analysis of hepatic DMGDH protein levels in HO HCU mice in the presence and absence of methotrexate levels were assessed.
As illustrated herein, FIGS. 10A-10B represents a Western blot comparing the level of DMGDH and GAPDH (control) for untreated (HO) and treated (HO+MTX, methotrexate) mice (HO) using the HCU mouse model (10A); and further illustrated in a histogram plot (10B), level of intensity of DMDGH for untreated (HO) and treated (HO+MTX, methotrexate) mice (HO) using the HCU mouse model. This figure represents an N=9 per group and this figure is a representative of three independent experiments. P<0.05.
In another exemplary method, experiments were performed to measure levels of a critical enzyme in treated and untreated mouse models (HO).
As found in FIGS. 15A-15B, a Western blot comparing the level of DMGDH and GAPDH (control) for untreated (HO), treated (e.g. formate agent) and treated with standard treatment combinations (e.g. formate and trimethylglycine (e.g. betaine)) using the HCU mouse model (15A); and further illustrating in a histogram plot (15B), level of intensity of DMDGH for untreated (HO), treated (e.g. formate agent) and treated with standard treatment combinations (e.g. formate and trimethylglycine (e.g. betaine)) using the HCU mouse model in certain embodiments disclosed herein. Western blotting analysis of hepatic DMGDH protein levels in HO HCU mice in the presence and absence of either about 5.0% sodium formate alone or in combination with about 3.0% betaine given ad libitum in drinking water for about one week. N=9 per group. This figure is representative of three independent experiments.
On the technique in general: A western blot detects proteins with antibodies after separation by electrophoresis.

The subject of another series is hepatic 5-methyl-THF. The experiment in a line: Hepatic metabolomic analysis of 5-MeTHF in HO mice. It counts as in vivo, mouse. Conditions: betaine 3% w/v in drinking water ad libitum. The text has this: As illustrated in one example, see FIG. 2, HCU (HO) induces a significant accumulation of hepatic 5-methyl-THF which by sequestering one carbon units has the potential to decrease the available pool of THF available to the betaine pathway for lowering Hcy. FIG. 2 illustrates an example of hepatic metabolomic analysis of HO and WT controls compared to an HO mouse treated with betaine. Comparative hepatic metabolomic analysis of HO mice and WT controls illustrate about a 10-fold accumulation in the MTHFR product 5-MeTHF. Betaine treatment alone reduced 5-MeTHF by about 15-25%. Data illustrated in FIG. 2 is derived from the livers of 8 (4 male, 4 female) individual HO or WT or HO Betaine mice per group. Betaine was given at 3% w/v in drinking water given ad libitum. P<0.0001 vs WT.

Another series relates to DHFR. The experiment in a line: Western blotting analysis of hepatic DHFR protein levels in HO HCU mice. In kind it is in vivo, mouse. Conditions: betaine treated, not restored to control levels. The procedure:
In other exemplary experiments, levels of DHFR were assessed using the HO mouse model in untreated and betaine treated mice. […] In addition, intensity levels of DHFR were measured and further illustrated in a histogram plot. As illustrated, level of intensity of DHFR for wild type (WT), treated (HO+betaine) and untreated mice (HO) using the HCU mouse model was examined. It is noted that the level of DHFR in betaine treated mice was not restored to control levels and only about a 5-10% improvement was observed (4B). (See FIGS. 4A-4B). As noted herein, Western blotting analysis of hepatic DHFR protein levels in WT and HO HCU mice. N=9 per group.

Series [2] relates to Cbs null mouse. To be noted: betaine treatment; cited from earlier work.
The next series has as its system BHMT. The experiment in a line: BHMT protein level in liver during long-term betaine treatment. In kind it is in vivo. An excerpt:
By this observation, it raised the possibility that the BHMT protein is impaired in its function. […] In this context, further induction of BHMT expression observed in a long-term betaine treatment group could constitute a not entirely successful compensatory mechanism designed to mitigate the effects of diminished BHMT activity.
In other embodiments disclosed herein, it was observed that BHMT is unusual in that it constitutes approximately 2% of total protein in the liver. During long-term betaine treatment this concentration rises to up to four to five fold (about 8-10%) of total hepatic protein which is an enormous amount of protein that would require zinc for its function. The increased requirement for zinc cannot be supplied because zinc cannot be stored in mammals and must be supplemented by diet or other source. Unfortunately, dietary sources of zinc are typically very high in protein and therefore precluded by the low methionine diet required of HCU patients. Therefore, long term betaine treatment in HCU could induce a significant zinc deficiency in a subject, impairing BHMT protein function and concomitantly reducing the betaine response.
BHMT is unusual in that it constitutes approximately 2% of total protein in the liver. […]

Series [3] has as its system mouse model of MTR deficient homocystinuria. The experiment in a line: Betaine supplementation in mouse model of MTR deficient homocystinuria. It counts as in vivo. The text has this:
In the following exemplary experiments, it was observed that betaine supplementation was limited as observed in a mouse model of MTR deficient homocystinuria. As noted in FIG. 1, Homocystinuria can occur due to defects in the Hcy remethylation enzymes MTR or MTHFR. It was observed that supplementation of betaine in certain experiments with a mouse model of MTR deficient homocystinuria lead to reduction of tHcy of approximately 25% having little effect on the condition. This modest decrease in betaine mediated treatment of MTR deficient homocystinuria has also been observed in human patients with this form of homocystinuria.

Series [4] relates to HO HCU mice. The experiment in a line: Long-term betaine treatment of HO HCU mice without methionine-restriction. In kind it is in vivo, mouse.
Series [5] has as its system Cbs null mouse. The experiment in a line: Hcy lowering, survival and liver injury in Cbs null mouse model. In kind it is in vivo. To be noted: Cbs null mice with severe liver damage. The text has this:
In one exemplary method, an acceptable mouse mode of HCU is used to study various effects of exemplary compositions disclosed herein on aberrant Hcy levels. To date, the majority of research on HCU has been performed using a CBS knockout mouse model. These Cbs (−/−) animals suffer from pronounced liver injury and typically die within 2-3 weeks of birth.
In an alternative experiment, agents were used to verify involvement of BHMT in the homocystinuria treatment process. In these exemplary methods, a Cbs null mouse was used where severe liver damage to the mouse model interferes with standard HCU treatments to reduce Hcy.

In a further series the test system is A394V mice. The experiment in a line: Plasma Hcy in NKH knock-in mouse model (GLDC mutation A394V) challenged with glycine.
Setting [6] is: betaine treatment of the HO model.

Experimental for A394V mice: In another exemplary experiment, NKH as represented in the experimental mouse model, A394V mice was tested for levels of Hcy in the NKH mouse model when exposed to various agents.
In this experiment, a knock-in mouse model with the clinically observed human GLDC mutation A394V engineered into the mouse gene was used. This mutation retains a small amount of residual enzyme that is sufficient to create a viable model.
Data shown has an N=5 animals per group and is representative of 2 independent experiments.

Regarding `CNCC(=O)O` [sarcosine, sarcosine (methylglycine)], the “further lowering of Hcy due to betaine in the presence of the amino acid” value (“further lowering of Hcy due to betaine” for short) with HO HCU mice [1] (HO HCU mice) was “also observed”.

In the case of `O=S(=O)([O-])[O-].[Zn+2]` [Zinc sulfate], the “average decrease in plasma homocysteine” value in the series on HO HCU mice [1] (8 HO HCU mice, 0.05% w/v Zinc sulfate in drinking water ad libitum for one week) is 25%. Further, the “decrease in betaine efficacy during long term betaine treatment, zinc combined with betaine” value with HO HCU mice [1] (HO HCU mice, zinc supplementation with betaine, data not shown) is listed as “prevented”.

Regarding `CN(Cc1cnc2nc(N)nc(N)c2n1)c1ccc(C(=O)N[C@@H](CCC(=O)O)C(=O)O)cc1` [methotrexate], the “hepatic DMGDH protein levels” value in the series with DMGDH (methotrexate treatment) is on record as “represses”.

Turning to `C[N+](C)(C)CC(=O)O` [betaine, N,N,N-trimethylglycine], the “reduction of hepatic 5-MeTHF” value with hepatic 5-methyl-THF is 15-25%. Moreover, the “reduction of Hcy levels by standard treatment alone” value with HO HCU mice [1] (HO mouse model, betaine alone, as previously observed) was 15-25%. Besides, in the series with HO HCU mice [1] (setting [6]), the AdoHcy levels result was “fivefold decrease”, the “decrease in plasma AdoMet” value amounted to 40%, the “plasma DMG” value is given as “increase” and the “plasma MG” value is “increase”. For the same molecule, in the series on HO HCU mice [1] (setting [6]), the plasma cysteine entry is recorded as “increase” and the plasma methionine result is reported as “increase”. Besides, in the series on DHFR, the “improvement of hepatic DHFR level” value was 5-10%. In the series with Cbs null mouse [2], the “fertility of female Cbs (-/-) mice” value is given as “restored fertility”; the “lowering of Hcy in Cbs (-/-) mice” value was “without significantly lowering Hcy”; the “severe liver injury, steatosis, and fibrosis in surviving Cbs (-/-) mice” value was “not significantly improved”; the “survival of Cbs (-/-) mice” value was “improved survival”. In addition, the “levels of BHMT protein” value with BHMT is given as “significantly higher levels”. Moreover, the “BHMT as share of total hepatic protein” value with BHMT (approximately 2% normally) was 8-10%. Further, the “reduction of tHcy” value in series [3] is “approximately 25%”. Besides, in the series on HO HCU mice [4] (long-term betaine treatment, no methionine-restriction), the “ability of betaine treatment to lower homocysteine” value is recorded as “diminished significantly over time”. For the same molecule, in the series with HO HCU mice [4] (prolonged betaine treatment), the coagulation phenotype result is listed as “reversion to a hypercoagulative phenotype”; the “plasma levels of TNF-α and IL-Ip” value is given as “significant increase”.

With `N[C@@H](CO)C(=O)O` [serine], in the series with HO HCU mice [1] (HO HCU mice), the “further lowering of Hcy due to betaine” value is “reduced and/or completely prevented”. Further, in the series with HO HCU mice [1], the “plasma Hcy” value is reported as “significantly lowered” and the plasma cysteine levels result is on record as “increased”. Further, the “lowering of Hcy in the Cbs null mouse model” value in the series on Cbs null mouse [5] was “unable to lower Hcy”.

As for `O=C[O-].[Na+]` [sodium formate], the “plasma Hcy levels” value in the series with HO HCU mice [1] (HO HCU mice, about 5.0% w/v sodium formate alone in drinking water, normal methionine/protein diet) was “significantly lowered”. Also, the “Hcy levels, formate combined with the standard treatment (betaine)” value with HO HCU mice [1] (HO HCU mice, about 5.0% w/v sodium formate with about 3.0% betaine in drinking water, normal protein diet) is given as “near normal levels”. The “hepatic DMGDH expression levels” value with DMGDH (about 5.0% sodium formate alone in drinking water, about one week) is on record as “restore normal expression levels”. Also, the “response level for restoring DMGDH, formate agent combined with betaine” value in the series with DMGDH (about 5.0% sodium formate with about 3.0% betaine in drinking water, about one week) is “surprisingly synergistic”. In addition, in the series on A394V mice (A394V NKH mice, concomitant formate about 5.0% w/v in drinking water with about 5.0% w/v glycine), the “glycine induced increase in Hcy” value is “significantly reduced”. Moreover, in the series on Cbs null mouse [5], the “lowering of Hcy in the Cbs null mouse model” value is reported as “unable to lower Hcy”.

Turning to `NCC(=O)O` [glycine], in the series with HO HCU mice [1] (HO HCU mice), the “further lowering of Hcy due to betaine” value is “reduced and/or completely prevented”. Further, in the series on HO HCU mice [1], the “plasma Hcy” value is listed as “significantly lowered” and the plasma cysteine levels entry is “increased”. Further, in the series on A394V mice (mouse, in vivo), the “plasma Hcy on glycine challenge” value is given as “massive increase”. In the series with Cbs null mouse [5], the “lowering of Hcy in the Cbs null mouse model” value is listed as “unable to lower Hcy”.

For `N[C@@H](Cc1c[nH]cn1)C(=O)O` [histidine], in the series on HO HCU mice [1] (HO HCU mice), the “further lowering of Hcy due to betaine” value is recorded as “also observed”.

For `N[C@@H](Cc1c[nH]c2ccccc12)C(=O)O` [tryptophan], the “further lowering of Hcy due to betaine” value with HO HCU mice [1] (HO HCU mice) was “also observed”.
